In patent publication US10828276B2, “Combination therapeutics and methods for the treatment of neurodegenerative and other diseases” (APHIOS CORPORATION, priority 2012, dated 2020):

How the values were obtained:
[1] = test system: SH-SY5Y neuroblastoma cells; assay: sAPP-a release from SH-SY5Y cells (6E10 western blot, densitometry); assay type: cell-based
Experimental: Cells were treated with RA, Bryostatin-1 (10^−9M)+RA, Bryostatin-1 (10^−10M), RA+Bryostatin-1 (10^−10M) for 3 h.

ADAM10 = ADAM10 expression in SH-SY5Y cells; assay type: cell-based; conditions: single agents
Excerpt: Therefore, Bryostatin-1 may increase […]-secretase processing through 2 independent mechanisms: (i) activation of PKCs which stimulate[…]secretase; and (ii) increased expression of […]-secretase.

[2] = test system: Alzheimer's disease mediated memory loss; assay: Water maze studies in sweAPP/PS1 mice; assay type: in vivo, Mouse strain B6C3-Tg
Excerpt: Mouse strain B6C3-Tg carrying mutant Swedish Amyloid precursor protein (sweAPP) and PS1 (presenilin-1) genes associated with early onset Alzheimer's disease were subjected to water maze tests at 5-6 months of age.

CCC/C=C/C=C/C(=O)O[C@H]1/C(=C/C(=O)OC)C[C@H]2C[C@H]([C@@H](C)O)OC(=O)C[C@H](O)C[C@@H]3C[C@H](OC(C)=O)C(C)(C)[C@](O)(C[C@@H]4C/C(=C/C(=O)OC)C[C@H](/C=C/C(C)(C)[C@]1(O)O2)O4)O3 [Bryostatin-1]
sAPP formation ([1]; 10^−9M Bryostatin-1 alone): increased | activity of alpha-secretase ([1]; SH-SY5Y neuroblastoma cells): potently stimulate | sAPPa recovered from culture medium compared to control ([1]; single agents, RA 2 μM, Bryostatin-1 10^−10M, 3 h, p<0.05, p<0.01): significantly increased | expression of ADAM10 (ADAM10): significantly increase | protection against Alzheimer's disease mediated memory loss (water maze) ([2]; 5 micrograms/mouse on alternative days orally in an oil formulation, mice 5-6 months of age, vs control animals): significant protection | memory and cognition in AD model ([2]; our AD model): enhance memory and cognition
